# Test results: US11566007B2, “Ras inhibitors” (Revolution Medicines, Inc., priority 2019, dated 2023)
# “And” between values parts separate entries of the source, which are not always exact repeats. Equal entries are not always repeated.
# Tests used:
# KRAS WT = KRAS WT (Homo sapiens (Human), UniProt P01116+P62937); assay: Ras-Raf (BRAF RBD) disruption / FRET / MOA assay, KRAS WT; assay type: biochemical; conditions: read-out: IC50* KRAS WT FRET data
# Outline: (§1)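 Ternary complex formation (Ras–compound–cyclophilin A) displacing BRAF RBD, monitored by TR-FRET. Three hours at 25° C with compound (top 30 μM final), then 1.5 h with the labelled antibodies. Lower ratio than DMSO indicates disruption; IC50 reported.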
# KRAS G13D = KRAS G13D (Homo sapiens (Human), UniProt P01116+P62937, G13D); assay: Ras-Raf (BRAF RBD) disruption / FRET / MOA assay, KRAS G13D; assay type: biochemical; conditions: read-out: IC50* KRAS G13D FRET data
# Chain of KRAS G13D (P01116-2 other isoform, or with tags, fused parts or gaps G13D): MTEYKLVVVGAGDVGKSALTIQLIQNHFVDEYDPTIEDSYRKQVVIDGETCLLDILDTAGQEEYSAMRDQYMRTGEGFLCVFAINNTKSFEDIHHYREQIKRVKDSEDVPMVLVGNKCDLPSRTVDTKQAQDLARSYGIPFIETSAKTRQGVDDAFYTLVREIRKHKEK
# Chain of KRAS G13D (P62937 whole entry): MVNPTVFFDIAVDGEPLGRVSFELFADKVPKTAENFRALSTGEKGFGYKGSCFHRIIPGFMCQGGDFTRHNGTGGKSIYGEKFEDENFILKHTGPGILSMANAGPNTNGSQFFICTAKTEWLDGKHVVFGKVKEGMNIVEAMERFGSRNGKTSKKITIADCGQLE
# Outline: as §1
# KRAS G12D = KRAS G12D (Homo sapiens (Human), UniProt P01116+P62937, G12D); assay: Ras-Raf (BRAF RBD) disruption / FRET / MOA assay, KRAS G12D; assay type: biochemical; conditions: Ras-Raf disruption/FRET/MOA assay; class symbols; read-out: KRAS G12D FRET data IC50
# Chain of KRAS G12D (P01116-2 other isoform, or with tags, fused parts or gaps G12D): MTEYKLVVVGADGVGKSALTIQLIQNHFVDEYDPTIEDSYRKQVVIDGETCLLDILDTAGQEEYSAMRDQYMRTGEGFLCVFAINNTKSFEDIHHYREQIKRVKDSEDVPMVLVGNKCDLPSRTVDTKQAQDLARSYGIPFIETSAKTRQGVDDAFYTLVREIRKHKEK
# Chain of KRAS G12D (P62937 whole entry): as the sequence (P62937 whole entry) above
# Outline: as §1
# NCI-H358 (K-Ras G12C) = assay: CellTiter-Glo cell viability assay, NCI-H358; assay type: cell-based, human; conditions: Homo sapiens, NCI-H358, 120 h, NCI-H358, 5-day treatment; class symbols; read-out: Additional H358 Cell Viability assay data (K-Ras G12C, IC50)
# Outline: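 Four-parameter logistic fits were applied to luminescence data normalized against DMSO-treated wells. Readings were taken on day 5 following direct compound addition, after roughly 30 minutes at room temperature.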
# [1] = tested on: NCI-H358 cells (K-Ras G12C); assay: Potency assay: pERK in NCI-H358 cells; assay type: cell-based, human; conditions: Homo sapiens, NCI-H358; H358 KRAS G12C; read-out: pERK EC50
# Outline: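 Compounds are dosed as ten 3-fold dilutions from a 10 mM DMSO stock, in duplicate, and left on cells for 4 h at 37 °C, 5% CO2. Phospho-ERK1/2 is then quantified by AlphaLISA SureFire Ultra or In-Cell Western, and IC50 is derived from a 4-parameter sigmoid against log concentration.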
# K-Ras G12C = K-Ras G12C (Homo sapiens (Human), UniProt P01116+P62937, G12C); assay: Ras-Raf (BRAF RBD) disruption / FRET / MOA assay, KRAS G12C; assay type: biochemical; conditions: KRAS G12C; Ras-Raf disruption/FRET/MOA assay; read-out: IC50* KRAS G12C FRET data
# Chain of K-Ras G12C (P01116-2 other isoform, or with tags, fused parts or gaps G12C): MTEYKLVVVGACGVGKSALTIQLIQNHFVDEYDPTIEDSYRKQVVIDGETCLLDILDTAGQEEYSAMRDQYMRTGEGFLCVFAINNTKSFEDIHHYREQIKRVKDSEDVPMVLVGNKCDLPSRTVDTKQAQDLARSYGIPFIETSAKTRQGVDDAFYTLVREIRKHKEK
# Chain of K-Ras G12C (P62937 whole entry): as the sequence (P62937 whole entry) above
# Outline: as §1
# KRAS G12V = KRAS G12V (Homo sapiens (Human), UniProt P01116+P62937, G12V); assay: Ras-Raf (BRAF RBD) disruption / FRET / MOA assay, KRAS G12V; assay type: biochemical; conditions: read-out: IC50* KRAS G12V FRET data
# Chain of KRAS G12V (P01116-2 other isoform, or with tags, fused parts or gaps G12V): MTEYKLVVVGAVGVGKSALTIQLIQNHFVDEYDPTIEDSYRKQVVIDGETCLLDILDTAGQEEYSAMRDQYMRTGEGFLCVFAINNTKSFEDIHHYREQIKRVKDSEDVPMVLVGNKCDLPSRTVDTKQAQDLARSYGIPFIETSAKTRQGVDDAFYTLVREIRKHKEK
# Chain of KRAS G12V (P62937 whole entry): as the sequence (P62937 whole entry) above
# Outline: as §1
# K-Ras G13C = K-Ras G13C (Homo sapiens (Human), UniProt P01116+P62937, G13C); assay: Ras-Raf (BRAF RBD) disruption / FRET / MOA assay, KRAS G13C; assay type: biochemical; conditions: KRAS G13C; Ras-Raf disruption/FRET/MOA assay; read-out: IC50* KRAS G13C FRET data
# Chain of K-Ras G13C (P01116-2 other isoform, or with tags, fused parts or gaps G13C): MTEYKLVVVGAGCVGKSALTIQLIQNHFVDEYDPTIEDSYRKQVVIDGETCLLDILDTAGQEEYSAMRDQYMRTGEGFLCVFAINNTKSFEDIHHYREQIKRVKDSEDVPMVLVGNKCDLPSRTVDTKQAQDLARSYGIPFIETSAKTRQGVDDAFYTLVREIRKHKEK
# Chain of K-Ras G13C (P62937 whole entry): as the sequence (P62937 whole entry) above
# Outline: as §1
# KRAS G12S = KRAS G12S (Homo sapiens (Human), UniProt P01116+P62937, G12S); assay: Ras-Raf (BRAF RBD) disruption / FRET / MOA assay, KRAS G12S; assay type: biochemical; conditions: Ras-Raf disruption/FRET/MOA assay; class symbols; read-out: KRAS G12S FRET data IC50
# Chain of KRAS G12S (P01116-2 other isoform, or with tags, fused parts or gaps G12S): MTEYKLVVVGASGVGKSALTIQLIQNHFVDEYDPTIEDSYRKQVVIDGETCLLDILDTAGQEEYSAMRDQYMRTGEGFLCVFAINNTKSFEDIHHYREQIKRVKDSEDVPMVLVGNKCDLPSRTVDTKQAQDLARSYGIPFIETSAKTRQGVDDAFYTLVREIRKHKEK
# Chain of KRAS G12S (P62937 whole entry): as the sequence (P62937 whole entry) above
# Outline: as §1
# NRAS G12C = NRAS G12C (Homo sapiens (Human), UniProt P01111+P62937, G12C); assay: Ras-Raf (BRAF RBD) disruption / FRET / MOA assay, NRAS G12C; assay type: biochemical; conditions: read-out: IC50* NRAS G12C FRET data
# Chain of NRAS G12C (P01111 whole entry G12C): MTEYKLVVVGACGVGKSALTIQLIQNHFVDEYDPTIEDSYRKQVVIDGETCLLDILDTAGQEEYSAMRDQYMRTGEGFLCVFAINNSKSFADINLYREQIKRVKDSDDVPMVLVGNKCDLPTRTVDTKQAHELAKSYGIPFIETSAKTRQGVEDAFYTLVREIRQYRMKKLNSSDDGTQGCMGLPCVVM
# Chain of NRAS G12C (P62937 whole entry): as the sequence (P62937 whole entry) above
# Outline: as §1
# Chain of KRAS WT (P01116-2 other isoform, or with tags, fused parts or gaps): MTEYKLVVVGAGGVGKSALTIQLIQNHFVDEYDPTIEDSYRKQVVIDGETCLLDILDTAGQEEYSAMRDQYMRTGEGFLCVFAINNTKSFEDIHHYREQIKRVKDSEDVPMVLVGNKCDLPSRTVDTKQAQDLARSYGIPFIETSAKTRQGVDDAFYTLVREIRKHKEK
# Chain of KRAS WT (P62937 whole entry): as the sequence (P62937 whole entry) above
SMILES,IC50 (KRAS WT),IC50 (KRAS G13D) [nM],IC50 (KRAS G12D) [nM],IC50 (NCI-H358 (K-Ras G12C)) [nM],EC50 [1] [nM],IC50 (K-Ras G12C),IC50 (KRAS G12V),IC50 (K-Ras G13C),IC50 (KRAS G12S),IC50 (NRAS G12C)
C=CC(=O)N1CC(OCC(C(=O)N[C@H]2Cc3cccc(c3)-c3ccc4c(c3)c(c(-c3cccnc3[C@H](C)OC)n4CC)CC(C)(C)COC(=O)[C@@H]3CCCN(N3)C2=O)C(C)C)C1 (stereo partly shown) [Example A483],1000 to 10000 nM,> 10000,> 10000,< 10,< 5000,100 to 1000 nM,1000 to 10000 nM,1000 to 10000 nM,> 10000 nM,100 to 1000 nM
C=CC(=O)N1CCN(C(=O)N(C)[C@H](C(=O)N[C@H]2Cc3cc(O)cc(c3)-c3ccc4c(c3)c(c(-c3ccccc3CCOC)n4CC)CC(C)(C)COC(=O)[C@@H]3CCCN(N3)C2=O)C(C)C)C[C@@H]1COC [Example A125],1000 to 10000 nM,1000 to 10000,> 10000,> 1000,< 5000,100 to 1000 nM,1000 to 10000 nM,100 to 1000 nM,1000 to 10000 nM,1000 to 10000 nM
"C=CS(=O)(=O)N1CC[C@H](C(=O)N(C)[C@H](C(=O)N[C@H]2Cc3cccc(c3)-c3ccc4c(c3)c(c(-c3cccnc3[C@H](C)OC)n4CC)CC(C)(C)COC(=O)[C@@H]3CCCN(N3)C2=O)C(C)C)C1 (atropisomer, axis not shown) [Example A124]",1000 to 10000 nM and > 10000 nM,> 10000,> 10000,10 to 100,< 5000,10 to 100 nM and 1000 to 10000 nM,1000 to 10000 nM and > 10000 nM,10 to 100 nM and 1000 to 10000 nM,1000 to 10000 nM and > 10000 nM,10 to 100 nM and 1000 to 10000 nM
C=CC(=O)N1CC[C@H](C(=O)N(C)[C@H](C(=O)N[C@H]2Cc3cc(O)cc(c3)-c3ccc4c(c3)c(c(-c3ccc(CN(C)C)nc3COC)n4CC)CC(C)(C)COC(=O)[C@@H]3CCCN(N3)C2=O)C(C)C)C1 [Example A103],1000 to 10000 nM,1000 to 10000,1000 to 10000,100 to 1000,< 5000,10 to 100 nM,100 to 1000 nM,1000 to 10000 nM,100 to 1000 nM,10 to 100 nM
CCn1c(-c2cccnc2[C@H](C)OC)c2c3cc(ccc31)-c1cccc(c1)C[C@H](NC(=O)[C@H](C(C)C)N(C)C(=O)C1CCN(C(=O)C#C[C@@H]3CC(F)(F)CN3C)C1)C(=O)N1CCC[C@H](N1)C(=O)OCC(C)(C)C2 (stereo partly shown) [Example A526],1000 to 10000 nM,> 10000,> 10000,< 10,< 5000,10 to 100 nM,1000 to 10000 nM,1000 to 10000 nM,1000 to 10000 nM,10 to 100 nM
"CO[C@@H](C)c1ncccc1-c1c2c3cc(ccc3n1CC(F)(F)F)-c1nc(cs1)C[C@H](NC(=O)[C@H](C(C)C)N(C)C(=O)[C@H]1CCN(C(=O)C#CC(C)(C)N3CCC3)C1)C(=O)N1CCC[C@H](N1)C(=O)OCC(C)(C)C2 (atropisomer, axis not shown) [Example A454]",100 to 1000 nM,1000 to 10000,1000 to 10000,< 10,< 5000,10 to 100 nM,1000 to 10000 nM,100 to 1000 nM,1000 to 10000 nM,10 to 100 nM
"C/C=C(\C)S(=O)(=O)N1CC[C@H](C(=O)N(C)[C@H](C(=O)N[C@H]2Cc3cc(O)cc(c3)-c3ccc4c(c3)c(c(-c3cccnc3[C@H](C)OC)n4CC)CC(C)(C)COC(=O)[C@@H]3CCCN(N3)C2=O)C(C)C)C1 (atropisomer, axis not shown) [Example A306]",100 to 1000 nM,100 to 1000,1000 to 10000,10 to 100,< 5000,100 to 1000 nM,100 to 1000 nM,10 to 100 nM,100 to 1000 nM,100 to 1000 nM
CCn1c(-c2cccnc2COC)c2c3cc(ccc31)-c1cc(O)cc(c1)C[C@H](NC(=O)[C@H](C(C)C)N(C)C(=O)[C@H]1CCN(C(=O)C#CCCN3CCOCC3)C1)C(=O)N1CCC[C@H](N1)C(=O)OCC(C)(C)C2 [Example A129],1000 to 10000 nM,1000 to 10000,1000 to 10000,10 to 100,< 5000,< 10 nM,100 to 1000 nM,100 to 1000 nM,100 to 1000 nM,< 10 nM
"CC#CC(=O)N1C[C@H](C)[C@H](C(=O)N(C)[C@H](C(=O)N[C@H]2Cc3cccc(c3)-c3ccc4c(c3)c(c(-c3cccnc3[C@H](C)OC)n4CC)CC(C)(C)COC(=O)[C@@H]3CCCN(N3)C2=O)C(C)C)C1 (atropisomer, axis not shown) [Example A413]",1000 to 10000 nM,1000 to 10000,> 10000,10 to 100,< 5000,100 to 1000 nM,1000 to 10000 nM,1000 to 10000 nM,1000 to 10000 nM,100 to 1000 nM
"CCn1c(-c2cccnc2[C@H](C)OC)c2c3cc(ccc31)-c1cc(O)cc(c1)C[C@H](NC(=O)[C@H](C(C)C)N(C)C(=O)c1ccc(NC(=O)/C=C/CN(C)C)nc1)C(=O)N1CCC[C@H](N1)C(=O)OCC(C)(C)C2 (atropisomer, axis not shown) [Example A249]",1000 to 10000 nM,1000 to 10000,> 10000,100 to 1000,< 5000,100 to 1000 nM,1000 to 10000 nM,10 to 100 nM,1000 to 10000 nM,100 to 1000 nM
CO[C@@H](C)c1ncccc1-c1nc2ccc3cn2c1CC(C)(C)COC(=O)[C@@H]1CCCN(N1)C(=O)[C@@H](NC(=O)[C@H](C(C)C)N(C)C(=O)[C@H]1CCN(C(=O)C#CC(C)(C)N(C)C)C1)Cc1cccc-3c1 [Example A311],> 10000 nM,> 10000,> 10000,> 1000,,> 10000 nM,> 10000 nM,> 10000 nM,> 10000 nM,> 10000 nM
C=CC(=O)N1CC[C@H](C(=O)N(C)[C@H](C(=O)N[C@H]2Cc3cccc(c3)-c3ccc4c(c3)c(c(-c3cnccc3[C@H](C)OC)n4CC)CC(C)(C)COC(=O)[C@@H]3CCCN(N3)C2=O)C(C)C)C1 [Example A122],> 10000 nM,> 10000,> 10000,> 1000,,> 10000 nM,> 10000 nM,> 10000 nM,> 10000 nM,> 10000 nM
